Experimental data taken from patent publication US4007165A (priority 1974, dated 1977).
Structures can show the parent of a compound that is named as a salt. Where two headings read alike, the source gives them in different places.

How the values were obtained:
[1] = Curing of unsaturated polyester-styrene resin
Procedure: An unsaturated polyester resin was made by reacting maleic anhydride (1.0 mole), phthalic anhydride (1.0 mole), and propylene glycol (2.2 moles) until an acid number of 45-50 was obtained. To this was added hydroquinone at a 0.013% concentration. Seven parts of this unsaturated polyester was diluted with 3 parts of monomeric styrene to obtain a homogeneous blend having a viscosity of 13.08 poise and a specific gravity of 1.14.
To 20 grams of this blend was added 0.128 gram of alpha-(tert.-butylazo)isobutyronitrile and the resultant composition placed in a constant temperature bath at 212° F. (100° C.). […] At 180° F. (82.2° C.), a peak exotherm of 381° F. (193.9° C.) was obtained in 13.3 minutes. The resultant cured materials were very hard.
The procedure of Example III was used at 212° F. (100° C.) and 240° F. (115.6° C.) where peak exotherms of 414° F. (212.2° C.) and 440° F. (226.7° C.) were obtained after 10.0 and 5.3 minutes respectively using 0.2 gram of the 1-tert.-butylazo-1-cyanocyclohexane. The resultant cured resins were very hard.
The curing procedure and resin are described in Example III.

[2] = Curing of unsaturated polyester-styrene resin; remark: listed apart in the source
Solubility = assay type: physicochemical; settings: petroleum and other organic solvents
[3] = Thermal decomposition half-life; assay type: physicochemical
Procedure: (§1) It produces 179 cc. of gas per gram at 110° C. The following half-life data have been determined:
The following half-life data have been determined by gas evolution technique using trichlorobenzene as the solvent: […]

[4] = Preliminary toxicological studies / toxicity
[5] = High pressure polymerization of ethylene
[6] = Polymerization of styrene, dilatometer rates; settings: rate at 10% conversion
Procedure: A solution of styrene containing 5 × 10^-^4 moles per deciliter of alpha-(tert.-butylazo)isobutyronitrile was heated at 85° C. and the change in density, which is a measure of polymer formation, was followed by means of a dilatometer to measure polymerization rates at 5% and 10% conversion to polystyrene. […] Without the alpha-(tert.-butylazo)-isobutyronitrile, the 5 and 10% rates were 0.92 × 10^-^3 moles per liter per minute. Thus, this azo compound initiated the polymerization of styrene at 85° C.
The procedure of Example II was used at 85° C. and 100° C. […] Without the 1-tert.-butylazo-1-cyanocyclohexane, the 5% and 10% rates at 100° C. were 2.81 × 10^-^3 moles per liter per minute.
A solution of styrene containing 5×10^^-4 moles per deciliter of the tert.-alkyl-α-substituted-azoalkane was heated in a constant temperature oil bath (the temperature of the bath depending on the thermal stability of the individual azo compounds) and the change in density, which is a measure of polymer formation, was followed by means of a dilatometer to measure polymerization rates (Rp) at 5% and 10% conversion to polystyrene. The rates obtained at 5% and 10% conversion are recorded in moles per liter per minute in Table LXXXII for the individual azo compounds. Their rate at 10% conversion (f1) is divided by the rate of a standard (f2) at the same temperature and concentration to give an efficiency rating f1 / f2.

[7] = Gas volume generated on thermal decomposition; assay type: physicochemical; settings: 130° C.
Procedure: as §1
It produces 146 cc. of gas per gram at 130° C.

[8] = for temperature at which it begins to evolve nitrogen: onset
[9] = cited from earlier work
[10] = commercial compound, background statement; cited from earlier work
[11] = Emulsion polymerization of ethyl acrylate; settings: 3.65 × 10^-^4 moles initiator, 85°-87° C.
Procedure: An emulsion containing 50 g. of deionized water, 40 g. ethyl acrylate, 4.8 g. Triton X-200, Rohm & Haas anionic surfactant, and 0.0769 g. (3.65 × 10^-^4 moles) α-tert-butylazo-α-methyl-γ-carboxy-butyronitrile (from Example X) was prepared. Approximately 25 g. of the emulsion was placed in a 250 ml. 4-neck round bottom flask equipped with a mechanical stirrer, thermometer and condenser. Nitrogen was passed through the system and the contents of the flask were heated to the reflux temperature of 82° C. When the temperature rose to 90° C., indicating polymerization was occurring, the balance of the emulsion was slowly added from a self-venting addition funnel, maintaining the temperature at 85°-87° C. At the end of the addition the temperature was raised to 95° C. for 5 minutes, a very small amount of hydroquinone added and the reaction cooled to room temperature. The total reaction times was 11/3 hours. The final pH was 3.6. A 5 g. aliquot was weighed into a tared dish and the monomers and water evaporated and the conversion of monomer to polymer was determined to be 94%.
A similar polymerization was run under the same conditions using 3.65 × 10^-^4 moles of the sodium salt of α-tert-butylazo-α-methyl-γ-carboxybutyronitrile as the initiator. The conversion was 92.3% and the final pH was 6.6.

[12] = Oxidation of iodide ion to free iodine
[13] = 180° F. (82.2° C.), 0.128 gram in 20 grams blend
[14] = bath 212° F. (100° C.), 0.128 gram in 20 grams blend
[15] = 85° C., standard f2 benzoyl peroxide
[16] = 180° F. (82.2° C.), 1.0 weight per cent
[17] = 212° F. (100° C.), 1.0 weight per cent
[18] = 240° F. (115.6° C.), 1.0 weight per cent
[19] = 265° F. (129.4° C.), 1.0 weight per cent
[20] = room temperature, 1.0 weight per cent

## CCCCC(C)(CC(C)C)N=NC(C)(C)C (centres unmarked) [Example LXI, 4-t-Butylazo-2,4-dimethyloctane]
[1]; bath 130° C.
  Barcol Hardness: 40
  Minutes to Peak Exotherm: 11.1 min
[2]; bath 130° C.
  peak exotherm: 382 ° F

## CC(C)(C)N=NC(C)(C)C#N [Example I, Alpha-(tert.-butylazo)isobutyronitrile]
[1]
  hardness of cured resin: very hard
[1]; [13]
  peak exotherm: 381 ° F.
  time to peak exotherm: 13.3 min
[1]; 212° F. (100° C.)
  quality of cure: excellent cure
[1]; [14]
  peak exotherm: 424 ° F.
  time to peak exotherm: 4.9 min
Solubility
  solubility: soluble in petroleum solvents
[3]; 70° C.
  t 1/2: 40.5 h
[4]
  toxicity relative to IXA and its decomposition residue: significantly less toxic
[5]
  initiator performance: especially advantageous initiators

## CC(C)(C)N=NC1(c2ccccc2)CCCCC1 [Example LXIII, 1-t-Butylazo-1-phenylcyclohexane]
[6]; [15]
  f1 /f2 efficiency rating: 1.32
[1]; bath 100° C.
  Barcol Hardness: 35
  Minutes to Peak Exotherm: 4.8 min
  peak exotherm: 435 ° F

## CC(C)(C)N=NC1(C#N)CCCCC1 [Example IV, 1-tert.-butylazo-1-cyanocyclohexane]
[1]
  hardness of cured resin: very hard
[1]; 212° F. (100° C.), 0.2 gram
  peak exotherm: 414 ° F.
  time to peak exotherm: 10.0 min
[1]; 240° F. (115.6° C.), 0.2 gram
  peak exotherm: 440 ° F.
  time to peak exotherm: 5.3 min
[3]; 96.3° C.
  t 1/2: 10.0 h
[3]; 100° C.
  t 1/2: 6.7 h
[3]; 110° C.
  t 1/2: 2.3 h
[3]; 120° C.
  t 1/2: .75 h
[4]
  toxicity relative to IXA and its decomposition residue: significantly less toxic
[7]
  gas produced: 146 cc. of gas per gram
[5]
  initiator performance: especially advantageous initiators

## COC(C)(C)CC(C)(N=NC(C)(C)C)OC (centres unmarked) [XXXVIII, 2-t-butylazo-4-methyl-2,4-dimethoxypentane]
[6]; 115° C., standard f2 di-t-butyl peroxide
  f1 /f2 efficiency rating: 0.38

## CC(C)(C)N=NC1=CCCCC1 [XXIII, 1(-tert.-butylazo)cyclohexene]
[8]
  temperature at which it evolves nitrogen: 60 °C
[2]; room temperature
  gelling of resin: gelled

## CC(C)(C#N)N=NC(C)(C)C#N [2, 2'-AZOBISISOBUTYRONITRILE]
[9]; common organic solvents: aromatic hydrocarbons, dioxane, alcohol, ether, carbon tetrachloride
  solubility: very low or limited solubility
[9]; petroleum hydrocarbon solvents
  solubility: insoluble
[10]
  toxicity: toxic solid

## CC(C)(C)N=NC1(N=[N+]=[N-])CCCCC1 [XLI, 1-t-butylazo-1-azidocyclohexane]
[6]; 100° C., standard f2 t-butyl perbenzoate
  f1 /f2 efficiency rating: 0.58

## COC1(N=NC(C)(C)C)CCCCC1 [XXXV, 1-t-butylazo-1-methoxycyclohexane]
[1]; bath 145° C.
  Minutes to Peak Exotherm: 5.7 min
  peak exotherm: 396 ° F
[2]; bath 145° C.
  Barcol Hardness: 40

## CC(C)(C)N=NC(C)(C#N)CCC(=O)O (stereo not drawn) [sodium salt of α-tert-butylazo-α-methyl-γ-carboxybutyronitrile]
[11]
  conversion of monomer to polymer: 92.3%

## CC(C)(C)N=NC(C)(C#N)CCC(=O)O (stereo not drawn) [Example X, alpha-tert.-butylazo-alpha-methyl-gammacarboxybutyronitrile]
[1]
  hardness of cured resin: very hard
[1]; [16]
  peak exotherm: 410 ° F.
  time to peak exotherm: 8.5 min
[1]; [17]
  peak exotherm: 422 ° F.
  time to peak exotherm: 3.8 min
[8]
  temperature at which it begins to evolve nitrogen: 85 °C
[11]
  conversion of monomer to polymer: 94%

## COC(=O)CNC(=O)N=NC(C)(C)C [XVI, tert.-butylazo-N-carbmethoxymethylformamide]
[1]
  hardness of cured resin: very hard
[1]; [18]
  peak exotherm: 356 ° F.
  time to peak exotherm: 15.8 min
[1]; [19]
  peak exotherm: 484 ° F.
  time to peak exotherm: 5.1 min
[8]
  temperature at which it begins to evolve nitrogen: 140 °C
[12]
  oxidizing of iodide ion: oxidized iodide ion to free iodine

## CC(C)(C)N=NC(=O)C(C)(C)C [Example XIX, Pivaloyl tert.-butyldiimide]
[1]
  hardness of cured resin: very hard
[1]; [16]
  peak exotherm: 289 ° F.
  time to peak exotherm: 4.9 min
[1]; [20]
  time to peak exotherm: 34.1 min
[8]
  temperature at which it evolves nitrogen: 35 °C
[2]; [20]
  peak exotherm: 139 ° F.

## COC(C)(C)CC(C)(N=NC(C)(C)C)N=[N+]=[N-] (centres unmarked) [XLIV, 2-t-butylazo-2-azido-4-methyl-4-methoxypentane]
[6]; [15]
  f1 /f2 efficiency rating: 1.19

## CC(C)CC(C)(N=NC(C)(C)C)c1ccccc1 (centres unmarked) [Example LXII, 2-t-Butylazo-2-phenyl-4-methylpentane]
[6]; 70° C., standard f2 benzoyl peroxide
  f1 /f2 efficiency rating: 1.41
